Measured values from EP0345153A1, “Affinity markers for hormonal steroid receptors, their use in hormonoradio therapy and as imaging agents of hormone-dependent cancers” (LA REGION WALLONNE, priority 1988, dated 1989).

Key:
[1] = system: récepteur de l'oestradiol; assay: Relative binding affinity (A.R.L) for the estradiol receptor; settings: vis-à-vis du récepteur de l'oestradiol
Description: Dans cette optique, des composés tels que 7 et 8 sont préparés (9b). Ils portent des petits clusters en 17a-et couvrent une gamme de valeurs de PKR+ de -6 pour 7 à +3 pour 8.

[2] = target: T1, Récepteur de la progestérone (Homo sapiens, UniProt P06401); settings: photochemically activated, after 1H; cited from earlier work
T1 sequence (P06401 1-933): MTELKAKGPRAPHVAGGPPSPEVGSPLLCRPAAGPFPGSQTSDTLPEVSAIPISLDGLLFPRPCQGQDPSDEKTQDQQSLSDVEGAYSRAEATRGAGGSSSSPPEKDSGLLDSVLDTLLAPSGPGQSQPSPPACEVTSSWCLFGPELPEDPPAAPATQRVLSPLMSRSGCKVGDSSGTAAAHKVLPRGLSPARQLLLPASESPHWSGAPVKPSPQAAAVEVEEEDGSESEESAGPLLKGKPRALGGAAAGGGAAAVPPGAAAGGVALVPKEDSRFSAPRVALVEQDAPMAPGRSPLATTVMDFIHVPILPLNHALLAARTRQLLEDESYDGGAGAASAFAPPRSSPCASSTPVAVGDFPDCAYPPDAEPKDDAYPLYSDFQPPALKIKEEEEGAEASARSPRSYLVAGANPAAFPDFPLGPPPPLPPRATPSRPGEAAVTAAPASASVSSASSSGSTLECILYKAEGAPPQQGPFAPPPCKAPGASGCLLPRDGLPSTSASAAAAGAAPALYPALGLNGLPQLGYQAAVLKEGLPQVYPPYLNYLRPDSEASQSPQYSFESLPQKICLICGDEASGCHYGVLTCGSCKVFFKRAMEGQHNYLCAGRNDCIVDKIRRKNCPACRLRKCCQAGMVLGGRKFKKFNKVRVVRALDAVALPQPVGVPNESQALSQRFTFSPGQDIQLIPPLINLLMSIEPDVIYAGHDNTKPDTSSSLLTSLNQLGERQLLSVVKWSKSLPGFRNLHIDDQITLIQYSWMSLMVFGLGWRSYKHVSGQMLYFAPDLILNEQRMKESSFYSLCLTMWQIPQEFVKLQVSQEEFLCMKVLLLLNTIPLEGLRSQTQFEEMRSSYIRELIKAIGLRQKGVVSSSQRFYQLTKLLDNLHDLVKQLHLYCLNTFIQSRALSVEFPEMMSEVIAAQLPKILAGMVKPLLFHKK

[3] = system: récepteur de l'oestradiol; settings: cited from earlier work
[4] = target: T2, récepteurs nucléaires de l'oestradiol d'utérus de brebis (Ovis aries, UniProt A0ACI6Q0N8); assay: Irreversible binding to nuclear estradiol receptors in ewe uterus nuclear extract (exchange with 10 nM tritiated estradiol, protamine sulfate precipitation)
T2 sequence (A0ACI6Q0N8 1-596): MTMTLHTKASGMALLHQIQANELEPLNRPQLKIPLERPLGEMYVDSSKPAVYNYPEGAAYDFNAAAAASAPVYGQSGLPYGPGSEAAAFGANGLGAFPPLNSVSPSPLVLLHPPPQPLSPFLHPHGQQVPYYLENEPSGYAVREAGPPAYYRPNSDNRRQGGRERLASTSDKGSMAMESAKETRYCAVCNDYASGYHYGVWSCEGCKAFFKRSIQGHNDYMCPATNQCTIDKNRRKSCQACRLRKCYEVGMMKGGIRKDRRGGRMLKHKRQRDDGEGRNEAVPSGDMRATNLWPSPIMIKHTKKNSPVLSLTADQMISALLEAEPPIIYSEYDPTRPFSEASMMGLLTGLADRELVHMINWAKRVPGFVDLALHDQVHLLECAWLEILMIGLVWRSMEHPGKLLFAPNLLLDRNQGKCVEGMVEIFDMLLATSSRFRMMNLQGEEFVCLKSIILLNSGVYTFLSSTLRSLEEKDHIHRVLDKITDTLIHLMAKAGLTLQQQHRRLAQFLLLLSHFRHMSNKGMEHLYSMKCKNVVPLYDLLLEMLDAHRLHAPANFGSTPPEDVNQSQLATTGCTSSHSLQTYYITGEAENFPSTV
Method: La nature irréversible de l'intéraction du composé 12 avec le récepteur a été démontrée en incubant un extrait nucléaire d'utérus de brebis en présence de molarités variables de complexe 12. A la fin du temps . d'incubation, l'hormone libre, présente dans le milieu, est éliminée par traitement au charbon dextran. Les fractions d'extrait nucléaire sont ensuite incubées à 20°C pendant 17 h. en présence de 10 nM d'oestradiol tritié. La fraction d'oestradiol tritiée liée (qui représente la quantité de récepteur qui n'a pas été marquée de façon covalente) est déterminée après précipitation des fractions liées au sulfate de protamine (9b). Les résultats sont rassemblés dans le tableau suivant

[5] = target: T3, Récepteur des glucocorticoîdes (Homo sapiens, UniProt P04150); settings: whole cells; cited from earlier work
T3 sequence (P04150 1-777): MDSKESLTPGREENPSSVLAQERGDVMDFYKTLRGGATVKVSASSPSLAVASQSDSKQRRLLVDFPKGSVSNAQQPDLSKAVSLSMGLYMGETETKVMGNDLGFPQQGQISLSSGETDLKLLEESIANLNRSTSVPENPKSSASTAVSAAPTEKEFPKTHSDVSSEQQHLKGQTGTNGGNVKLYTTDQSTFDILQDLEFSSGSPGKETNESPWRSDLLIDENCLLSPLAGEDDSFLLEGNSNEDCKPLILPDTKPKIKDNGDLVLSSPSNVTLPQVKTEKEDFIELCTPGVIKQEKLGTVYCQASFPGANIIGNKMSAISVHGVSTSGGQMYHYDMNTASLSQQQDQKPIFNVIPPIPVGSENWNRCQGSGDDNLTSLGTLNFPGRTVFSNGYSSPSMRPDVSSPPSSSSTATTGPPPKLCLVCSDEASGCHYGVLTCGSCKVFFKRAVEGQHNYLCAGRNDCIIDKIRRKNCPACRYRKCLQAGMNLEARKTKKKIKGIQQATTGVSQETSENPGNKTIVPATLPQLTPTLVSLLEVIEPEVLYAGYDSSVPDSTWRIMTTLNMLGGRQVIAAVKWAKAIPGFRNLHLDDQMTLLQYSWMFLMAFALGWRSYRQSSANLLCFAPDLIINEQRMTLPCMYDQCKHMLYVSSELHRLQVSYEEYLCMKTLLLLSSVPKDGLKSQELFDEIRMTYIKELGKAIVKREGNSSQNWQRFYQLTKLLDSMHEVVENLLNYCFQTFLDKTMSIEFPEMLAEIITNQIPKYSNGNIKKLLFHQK

C[C@]12CC[C@@H]3c4ccc(O)cc4CC[C@H]3[C@@H]1CC[C@@]2(O)c1ccccc1 [[17α-C6H5]-17β-oestradiol]
affinité relative de liaison (A.R.L) [1]: 25%

CCC(=O)[C@@]1(C)CC[C@H]2[C@@H]3CCC4=CC(=O)CCC4=C3CC[C@@]21C [compound 1, R5020]
Marquage [2]: 15%

C[C@]12C[C@H](CCl)[C@@H]3c4ccc(O)cc4CC[C@H]3[C@@H]1CC[C@@H]2O [compound 6, chlorométhyl 11β-oestradiol]
marqueur d'affinité du récepteur de l'oestradiol [3]: n'en étant pas un

CC12CCC3c4ccc(O)cc4CCC3C1CCC2(O)[c-]1cccc1.[Fe+2].c1cc[cH-]c1 (stereo not drawn) [compound 12, 17α-Ferrocényl-17β-oestradiol]
affinité relative de liaison (A.R.L) [1]: 13% | % d'inhibition de la liaison de l'oestradiol ([4]; incubation molarity 2 nM): 50% | % d'inhibition de la liaison de l'oestradiol ([4]; incubation molarity 5 nM): 71% | % d'inhibition de la liaison de l'oestradiol ([4]; incubation molarity 10 nM): 81%

Dexaméthasone-mésylate-21 [compound 2]
liaison non-spécifique [5]: Taux élevé de liaison non-spécifique

azide de l'hexestrol [compound 3]
efficacité d'inactivation ([3]; photochemical route): 10-15%
